Measurements: US20220135591A1, “HETEROCYCLIC COMPOUNDS AS INHIBITORS OF MONOACYLGLYCEROL LIPASE (MAGL)” (Hoffmann-La Roche Inc., priority 2019, published 2022)

Target: T1, MAGL (Homo sapiens, UniProt Q99685)
T1 sequence (Q99685 1-303): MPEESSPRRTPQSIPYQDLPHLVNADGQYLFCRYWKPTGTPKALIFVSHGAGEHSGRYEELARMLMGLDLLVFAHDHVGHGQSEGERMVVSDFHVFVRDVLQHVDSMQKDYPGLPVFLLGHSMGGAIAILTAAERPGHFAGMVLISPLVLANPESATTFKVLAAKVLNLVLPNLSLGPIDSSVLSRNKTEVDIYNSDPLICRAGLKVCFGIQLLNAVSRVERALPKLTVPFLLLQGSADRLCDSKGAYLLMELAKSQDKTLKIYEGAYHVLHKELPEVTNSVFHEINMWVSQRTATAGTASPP
Experiment: 2-AG assay: MAGL inhibitory activity by hydrolysis of 2-arachidonoylglycerol to arachidonic acid, mass spectrometry
Assay type: biochemical
Conditions: 2-AG assay (values marked [b])
Outline: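 Hydrolysis of 8 μM 2-arachidonoylglycerol by […] was run for 30 min at RT after a 15 min compound preincubation, in Tris/EDTA/Tween buffer. Test compounds spanned […]. The product was measured by online SPE-MS/MS (transitions 303.1→259.1 and 311.1→267.0), and activity was derived from the arachidonic acid/d8-arachidonic acid signal ratio.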

Q: Which IC50 does the source give for `O=C(NC1CN(C(=O)N2CCN(c3nc4nc(Cl)ccc4o3)CC2)C1)c1ccc(F)cc1Cl` [Example 253, 2-chloro-N-[1-[4-(5-chloro-[1,3]oxazolo[4,5-b]pyridin-2-yl)piperazine-1-carbonyl]azetidin-3-yl]-4-fluorobenzamide] here?
A: ≥ 12500 nM

Q: For `Cc1ccc2oc(N3CCN(C(=O)N4CC(NC(=O)c5ccc(F)cc5Cl)C4)CC3)nc2n1` [Example 254, 2-chloro-4-fluoro-N-[1-[4-(5-methyl-[1,3]oxazolo[4,5-b]pyridin-2-yl)piperazine-1-carbonyl]azetidin-3-yl]benzamide], which IC50 is on record?
A: ≥ 12500 nM

Q: How did the IC50 turn out when `O=C(Nc1ccc(F)cc1Cl)C1CN(C(=O)N2CCN(c3nc4nc(Cl)ccc4o3)CC2)C1` [Example 255, N-(2-chloro-4-fluorophenyl)-1-[4-(5-chloro-[1,3]oxazolo[4,5-b]pyridin-2-yl)piperazine-1-carbonyl]azetidine-3-carboxamide] was run?
A: ≥ 12500 nM

Q: With `Cc1ccc2oc(N3CCN(C(=O)N4CC(C(=O)Nc5ccc(F)cc5Cl)C4)CC3)nc2n1` [Example 256, N-(2-chloro-4-fluorophenyl)-1-[4-(5-methyl-[1,3]oxazolo[4,5-b]pyridin-2-yl)piperazine-1-carbonyl]azetidine-3-carboxamide] as the compound, how does the IC50 read?
A: ≥ 12500 nM

Q: For `Cc1cc(C(=O)N2CCN(c3nc4nc(Cl)ccc4o3)CC2)ccc1-c1cn(C(C)(C)C)nn1` [Example 257, (4-(1-(tert-butyl)-1H-1,2,3-triazol-4-yl)-3-methylphenyl)(4-(5-chlorooxazolo[4,5-b]pyridin-2-yl)piperazin-1-yl)methanone], which IC50 is on record?
A: 58 nM

Q: Which IC50 does the source give for `COC(C)(C)Cn1cc(-c2ccc(C(=O)N3CCN(c4nc5nc(Cl)ccc5o4)CC3)cc2)nn1` [Example 258, [4-(5-chlorooxazolo[4,5-b]pyridin-2-yl)piperazin-1-yl]-[4-[1-(2-methoxy-2-methyl-propyl)triazol-4-yl]phenyl]methanone] here?
A: 31 nM

Q: Which IC50 does the source give for `CC(C)Cc1nnc(-c2ccc(C(=O)N3CCN(c4nc5nc(Cl)ccc5o4)CC3)cc2)o1` [Example 267, (4-(5-chlorooxazolo[4,5-b]pyridin-2-yl)piperazin-1-yl)(4-(5-isobutyl-1,3,4-oxadiazol-2-yl)phenyl)methanone] here?
A: 69 nM

Q: `CC(C)(C)Cn1cc(-c2ccc(C(=O)N3CCN(c4nc5nc(Cl)ccc5o4)CC3)cc2C(F)(F)F)nn1` [Example 268, (4-(5-chlorooxazolo[4,5-b]pyridin-2-yl)piperazin-1-yl)(4-(1-neopentyl-1H-1,2,3-triazol-4-yl)-3-(trifluoromethyl)phenyl)methanone] was tested. Which IC50 did it give?
A: 4 nM

Q: For `CC(C)(C)Cn1ncc(-c2ccc(C(=O)N3CCN(c4nc5nc(Cl)ccc5o4)CC3)cc2C(F)(F)F)n1` [Example 269, (4-(5-chlorooxazolo[4,5-b]pyridin-2-yl)piperazin-1-yl)(4-(2-neopentyl-2H-1,2,3-triazol-4-yl)-3-(trifluoromethyl)phenyl)methanone], which IC50 is on record?
A: 6 nM

Q: `CC(C)(C)Cn1nncc1-c1ccc(C(=O)N2CCN(c3nc4nc(Cl)ccc4o3)CC2)cc1C(F)(F)F` [Example 270, (4-(5-chlorooxazolo[4,5-b]pyridin-2-yl)piperazin-1-yl)(4-(1-neopentyl-1H-1,2,3-triazol-5-yl)-3-(trifluoromethyl)phenyl)methanone] was tested. Which IC50 did it give?
A: 323 nM

Q: How did the IC50 turn out when `Cc1cc(C(=O)N2CCN(c3nc4nc(Cl)ccc4o3)CC2)cnc1-c1cn(CC(C)(C)C)nn1` [Example 271, (4-(5-chlorooxazolo[4,5-b]pyridin-2-yl)piperazin-1-yl)(5-methyl-6-(1-neopentyl-1H-1,2,3-triazol-4-yl)pyridin-3-yl)methanone] was run?
A: 74 nM

Q: Which IC50 does the source give for `Cc1cc(C(=O)N2CCN(c3nc4nc(Cl)ccc4o3)CC2)cnc1-c1cnn(CC(C)(C)C)n1` [Example 272, (4-(5-chlorooxazolo[4,5-b]pyridin-2-yl)piperazin-1-yl)(5-methyl-6-(2-neopentyl-2H-1,2,3-triazol-4-yl)pyridin-3-yl)methanone] here?
A: 9 nM

Q: With `C[C@@H]1CN(C(=O)c2ccc(-c3cn(CC(C)(C)C)nn3)cc2)CCN1c1nc2nc(Cl)ccc2o1` [Example 273, [(3R)-4-(5-chlorooxazolo[4,5-b]pyridin-2-yl)-3-methyl-piperazin-1-yl]-[4-[1-(2,2-dimethylpropyl)triazol-4-yl]phenyl]methanone] as the compound, how does the IC50 read?
A: 20 nM

Q: How did the IC50 turn out when `C[C@H]1CN(C(=O)c2ccc(-c3cn(CC(C)(C)C)nn3)cc2)CCN1c1nc2nc(Cl)ccc2o1` [Example 274, [(3S)-4-(5-chlorooxazolo[4,5-b]pyridin-2-yl)-3-methyl-piperazin-1-yl]-[4-[1-(2,2-dimethylpropyl)triazol-4-yl]phenyl]methanone] was run?
A: 137 nM

Q: `Cc1cc(C(=O)N2CCN(c3nc4nc(Cl)ccc4o3)CC2)ccc1-c1nnc(CC(C)C)o1` [Example 275, [4-(5-chlorooxazolo[4,5-b]pyridin-2-yl)piperazin-1-yl]-[4-(5-isobutyl-1,3,4-oxadiazol-2-yl)-3-methyl-phenyl]methanone] was tested. Which IC50 did it give?
A: 26 nM

Q: `O=C(c1ccc(OCC2(C(F)(F)F)CC2)nc1Cl)N1CCN(c2nc3nc(Cl)ccc3o2)CC1` [Example 276, [4-(5-chlorooxazolo[4,5-b]pyridin-2-yl)piperazin-1-yl]-[2-chloro-6-[[1-(trifluoromethyl)cyclopropyl]methoxy]-3-pyridyl]methanone] was tested. Which IC50 did it give?
A: 1520 nM

Q: How did the IC50 turn out when `Cc1ccc2oc(N3CCN(C(=O)c4ccc(-c5nnn(CC(C)(C)C)n5)cc4)CC3)nc2n1` [Example 277, (4-(5-methyloxazolo[4,5-b]pyridin-2-yl)piperazin-1-yl)(4-(2-neopentyl-2H-tetrazol-5-yl)phenyl)methanone] was run?
A: 9 nM

Q: How did the IC50 turn out when `CC(C)(C)c1nnc(-c2ncc(C(=O)N3CCN(c4nc5nc(Cl)ccc5o4)CC3)cc2F)o1` [Example 278, [6-(5-tert-butyl-1,3,4-oxadiazol-2-yl)-5-fluoro-3-pyridyl]-[4-(5-chlorooxazolo[4,5-b]pyridin-2-yl)piperazin-1-yl]methanone] was run?
A: 801 nM

Q: With `CC(C)(C)Cn1cc(-c2ncc(C(=O)N3CCN(c4nc5nc(Cl)ccc5o4)CC3)cc2C(F)(F)F)cn1` [Example 279, [4-(5-chlorooxazolo[4,5-b]pyridin-2-yl)piperazin-1-yl]-[6-[1-(2,2-dimethylpropyl)pyrazol-4-yl]-5-(trifluoromethyl)-3-pyridyl]methanone] as the compound, how does the IC50 read?
A: 11 nM

Q: For `CC(C)(CF)c1nnc(-c2ccc(C(=O)N3CCN(c4nc5nc(Cl)ccc5o4)CC3)cc2F)o1` [Example 280, [4-(5-chlorooxazolo[4,5-b]pyridin-2-yl)piperazin-1-yl]-[3-fluoro-4-[5-(2-fluoro-1,1-dimethyl-ethyl)-1,3,4-oxadiazol-2-yl]phenyl]methanone], which IC50 is on record?
A: 119 nM

Q: How did the IC50 turn out when `CC(C)(C)c1nnc(-c2ccc(C(=O)N3CCN(c4nc5nc(Cl)ccc5o4)CC3)cc2F)o1` [Example 281, [4-(5-tert-butyl-1,3,4-oxadiazol-2-yl)-3-fluoro-phenyl]-[4-(5-chlorooxazolo[4,5-b]pyridin-2-yl)piperazin-1-yl]methanone] was run?
A: 36 nM

Q: `Cc1ccc2oc(N3CCN(C(=O)c4cnc(-c5cnn(CC(C)(C)C)c5)c(C(F)(F)F)c4)CC3)nc2n1` [Example 282, [6-[1-(2,2-dimethylpropyl)pyrazol-4-yl]-5-(trifluoromethyl)-3-pyridyl]-[4-(5-methyloxazolo[4,5-b]pyridin-2-yl)piperazin-1-yl]methanone] was tested. Which IC50 did it give?
A: 11 nM

Q: How did the IC50 turn out when `CC(C)(C)Cn1nnc(-c2ccc(C(=O)N3CCN(c4nc5nc(Cl)ccc5o4)CC3)cc2)n1` [Example 283, (4-(5-chlorooxazolo[4,5-b]pyridin-2-yl)piperazin-1-yl)(4-(2-neopentyl-2H-tetrazol-5-yl)phenyl)methanone] was run?
A: 3 nM

Q: With `CC(C)(C)c1nc(-c2ccc(C(=O)N3CC4CCC(C3)N4c3nc4nc(Cl)ccc4o3)cc2)no1` [Example 284, [4-(5-tert-butyl-1,2,4-oxadiazol-3-yl)phenyl]-[8-(5-chlorooxazolo[4,5-b]pyridin-2-yl)-3,8-diazabicyclo[3.2.1]octan-3-yl]methanone] as the compound, how does the IC50 read?
A: 350 nM

Q: Which IC50 does the source give for `CC(C)(C)Cn1cc(-c2ccc(C(=O)N3CCN(c4nc5nc(Cl)ccc5o4)C(CO)C3)cc2)nn1` (centres unmarked) [Example 285, [4-(5-chlorooxazolo[4,5-b]pyridin-2-yl)-3-(hydroxymethyl)piperazin-1-yl]-[4-[1-(2,2-dimethylpropyl)triazol-4-yl]phenyl]methanone] here?
A: 2050 nM

Q: With `CC(C)(C)Cn1cc(-c2ccc(C(=O)N3CCN(c4nc5nc(F)ccc5o4)CC3)cc2)nn1` [Example 286, [4-[1-(2,2-dimethylpropyl)triazol-4-yl]phenyl]-[4-(5-fluorooxazolo[4,5-b]pyridin-2-yl)piperazin-1-yl]methanone] as the compound, how does the IC50 read?
A: 45 nM

Q: `Cc1cc(C(=O)N2CCN(c3nc4nc(Cl)ccc4o3)CC2)ccc1-n1cnc(C(C)(C)C)n1` [Example 287, [4-(3-tert-butyl-1,2,4-triazol-1-yl)-3-methyl-phenyl]-[4-(5-chlorooxazolo[4,5-b]pyridin-2-yl)piperazin-1-yl]methanone] was tested. Which IC50 did it give?
A: 114 nM

Q: With `Cc1ccc2oc(N3CCN(C(=O)c4ccc(-n5cnc(C(C)(C)C)n5)c(C)c4)CC3)nc2n1` [Example 288, [4-(3-tert-butyl-1,2,4-triazol-1-yl)-3-methyl-phenyl]-[4-(5-methyloxazolo[4,5-b]pyridin-2-yl)piperazin-1-yl]methanone] as the compound, how does the IC50 read?
A: 175 nM

Q: Which IC50 does the source give for `Cc1ccc2oc(N3CCN(C(=O)c4ccc(-n5cnc(C(C)(C)C)n5)c(Cl)c4)CC3)nc2n1` [Example 291, [4-(3-tert-butyl-1,2,4-triazol-1-yl)-3-chloro-phenyl]-[4-(5-methyloxazolo[4,5-b]pyridin-2-yl)piperazin-1-yl]methanone] here?
A: 172 nM
